Some test systems named below: A498; NCI-H226; OVCAR-5; ACHN; NCI-H23; MOLT-4; RXF 393; HCT-15; HOP-62; SK-MEL-5; SNB-75; SN12C; U-251; COLO 205; SW-620; Malme-3M; K562; MCF7; SR; OVCAR-4.
Common to all, as to assay: NCI tumour cell line growth inhibition, 48 h

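Where inhibition never reached the appropriate level, the endpoint shown equals the highest concentration tested. Otherwise, values were interpolated linearly from a five-concentration, 48-hour dose response in 96-well plates. The concentration for 50% growth inhibition is given as GI50.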 Activity calls are given as the source filed them. Rule as the data show it: active = GI50 up to about 1.1 µM and inactive = higher.

For the compound `O=S(=O)(c1ccccc1)C1CC(c2nc3ccccc3[nH]2)=NO1` (stereo not given), the GI50 with A498 is 43 µM (inactive); in the experiment with NCI-H226, > 100 µM (inactive); in the experiment on OVCAR-5 it was > 100 µM (inactive); in the experiment on ACHN, > 100 µM (inactive); with NCI-H23, > 100 µM (inactive); in the experiment with MOLT-4, 39.1 µM (inactive). Also, the GI50 is 83 µM (inactive) in the experiment on RXF 393; 51.3 µM in the experiment on HCT-15; > 100 µM (inactive) with HOP-62; 70.3 µM (inactive) in the experiment on SK-MEL-5; > 100 µM (inactive) in the experiment with SNB-75; > 100 µM (inactive) in the experiment with SN12C. The GI50 in the experiment with U-251 was > 100 µM (inactive); in the experiment with COLO 205 it was 37.3 µM (inactive); with SW-620, 43.8 µM (inactive); in the experiment on Malme-3M it was 8.26 µM (inactive); in the experiment on K562, 31.6 µM (inactive); in the experiment with MCF7, 53.3 µM (inactive). The figures for the GI50 with SR and in the experiment with OVCAR-4 were 29.3 µM (inactive) and > 100 µM (inactive), respectively.

Take `CCOC(=O)c1c(NC(=O)Nc2ccccc2)c(C(N)=O)c2n1CCCCC2`: the GI50 in the experiment on A498, in the experiment on NCI-H226, in the experiment on ACHN, in the experiment on NCI-H23, in the experiment on MOLT-4 and in the experiment with RXF 393 was > 100 µM (inactive) throughout. Moreover, the GI50 with HCT-15 was over 100 µM; with HOP-62, > 100 µM (inactive); in the experiment on SK-MEL-5, > 100 µM (inactive); with SNB-75, > 100 µM (inactive); in the experiment with U-251 it was > 100 µM (inactive); in the experiment with COLO 205 it was > 100 µM (inactive). Also, the GI50 in the experiment on SW-620, in the experiment with K562, in the experiment with MCF7, with SR and in the experiment on OVCAR-4 was > 100 µM (inactive) throughout.

As for `CCOP(=O)(COCCn1nc(Br)c(=O)[nH]c1=O)OCC`, the GI50 with A498, with NCI-H226, in the experiment on OVCAR-5, in the experiment on ACHN, in the experiment with NCI-H23 and in the experiment with MOLT-4 was > 100 µM (inactive) in each case. The GI50 in the experiment on RXF 393 is > 100 µM (inactive); in the experiment on HCT-15 it was over 100 µM; with HOP-62 it was > 100 µM (inactive); with SK-MEL-5 it was > 100 µM (inactive); with SNB-75, > 100 µM (inactive); with SN12C, > 100 µM (inactive). Moreover, the GI50 in the experiment with U-251, in the experiment with COLO 205, in the experiment on SW-620, in the experiment on Malme-3M, in the experiment with K562 and with MCF7 was > 100 µM (inactive) throughout. Also, the GI50 with SR is > 100 µM (inactive).

As to `COc1cc(C2S/C(=C/c3ccccc3)C(=O)N2c2cccc(NC(C)=O)c2)cc(OC)c1OC` (stereo not given), the GI50 in the experiment with A498 was 32.5 µM (inactive); in the experiment on NCI-H226, > 100 µM (inactive); in the experiment on OVCAR-5, 65.8 µM (inactive); in the experiment with ACHN it was 37.2 µM (inactive); in the experiment with NCI-H23, 38 µM (inactive); in the experiment with MOLT-4 it was 30.6 µM (inactive). For the same compound, the GI50 in the experiment on RXF 393 is 28.8 µM (inactive); in the experiment with HCT-15, 30.5 µM; in the experiment on HOP-62, 67 µM (inactive); in the experiment on SK-MEL-5 it was 35.2 µM (inactive); with SNB-75, 4.02 µM (inactive); in the experiment on SN12C it was 45.2 µM (inactive). The GI50 was 17.6 µM (inactive) with U-251; 27.3 µM (inactive) with COLO 205; 23.4 µM (inactive) in the experiment with Malme-3M; 39.5 µM (inactive) in the experiment with K562; 26.1 µM (inactive) in the experiment with MCF7; 37.9 µM (inactive) with SR. Moreover, in the experiment on OVCAR-4, the GI50 is 24.4 µM (inactive).
